Test results published in US10959432B2, “Microbiocidal oxadiazole derivatives” (Syngenta Participations AG, priority 2016, dated 2021).

Key:
Phakopsora pachyrhizi = test: Fungicidal activity against Phakopsora pachyrhizi / soybean / leaf disc preventative (Asian soybean rust); type: in vivo; details: foliar, 200 ppm in the applied formulation, soybean leaf disks, preventative (inoculated one day after application), assessed 12 to 14 days after application, read-out: disease control compared to untreated control leaf disks
How it was run: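 Soybean leaf discs on water agar sprayed with formulated compound diluted in water; spore suspension sprayed on lower leaf surface one day later. Incubated 24-36 h dark at 20° C, 75% rh, then 20° C, 12 h light/day, 75% rh. Percent disease control versus untreated scored 12 to 14 days after application.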

Uromyces viciae-fabae = test: Fungicidal activity against Uromyces viciae-fabae / field bean / leaf disc preventative (faba-bean rust); type: in vivo; details: foliar, 288 h, 100 ppm in the applied formulation, field bean leaf discs, preventative (inoculated two hours after application), assessed 12 days after application, read-out: disease control compared to untreated control leaf discs
How it was run: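 Field bean leaf discs on water agar treated with 10 μl compound in acetone plus spreader, then spray-inoculated on the lower surface with Uromyces viciae-fabae spores 2 h later. Incubation at 22 °C, 18 h day, 70% RH; percent disease control versus untreated scored 12 days after application, compounds at 100 ppm.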

[1] = tested on: Puccinia recondita f. sp. tritici; test: Fungicidal activity against Puccinia recondita f. sp. tritici / wheat / leaf disc preventative (brown rust); type: in vivo; details: foliar, 200 ppm in the applied formulation, wheat leaf segments cv. Kanzler, preventative (inoculated 1 day after application), assessed 7 to 9 days after application, read-out: disease control compared to untreated control leaf disks
How it was run: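 Wheat cv. Kanzler leaf segments on agar sprayed with formulated compound diluted in water, inoculated with P. recondita spores 1 day later. Incubated at 19C, 75% rh, 12 h light/12 h dark; scored 7 to 9 days after application as percent disease control versus untreated segments. Test rate 200 ppm.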

[2] = tested on: Glomerella laqenarium (Colletotrichum lagenarium); test: Fungicidal activity against Glomerella lagenarium (Colletotrichum lagenarium) liquid culture / cucumber / preventative (anthracnose); type: cell-based; details: Colletotrichum orbiculare; 20 ppm in the applied formulation; liquid culture in PDB, 24° C., 3 to 4 days after application; read-out: disease control compared to untreated control (inhibition of growth measured photometrically)
How it was run: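 Cryostored conidia mixed into potato dextrose broth and added to test compound (from DMSO solution) in microtiter plates. Incubated at 24 °C; growth inhibition read photometrically 3 to 4 days after application, as percent activity versus untreated check.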

[3] = tested on: Puccinia recondita f. sp. tritici; test: Fungicidal activity against Puccinia recondita f. sp. tritici / wheat / leaf disc curative (brown rust); type: in vivo; details: foliar, 200 ppm in the applied formulation, wheat leaf segments cv. Kanzler, curative (applied 1 day after inoculation), assessed 6 to 8 days after application, read-out: disease control compared to untreated control leaf disks
How it was run: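 Wheat cv. Kanzler leaf segments on agar, spore-inoculated, held dark at 19° C./75% RH; formulated compound in water sprayed 1 day post-inoculation (curative). Incubated 19° C., 75% RH, 12 h light/12 h dark; percent disease control vs untreated scored 6 to 8 days after application.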

melting point [°C] | SMILES | pest or weed control at 200 ppm (Phakopsora pachyrhizi) [%] | pest or weed control at 100 ppm (Uromyces viciae-fabae) [%] | pest or weed control at 200 ppm [1] [%] | inhibition at 20 ppm [2] [%] | pest or weed control at 200 ppm [3] [%]
145 to 147 | O=C(NCc1ccc(F)cc1)c1ccc(-c2noc(C(F)(F)F)n2)cc1F [Compound 4b.2] | ≥ 80 | ≥ 80 | ≥ 80 | ≥ 80 | 
198 to 203 | Cc1ccc(CNC(=O)c2ccc(-c3noc(C(F)(F)F)n3)cc2)cc1 [Compound 4a.1, N-(p-tolylmethyl)-4-[5-(trifluoromethyl)-1,2,4-oxadiazol-3-yl]benzamide] | ≥ 80 | ≥ 80 |  | ≥ 80 | 
144.9 to 146.5 | O=C(NCCc1ncc(C(F)(F)F)cc1Cl)c1ccc(-c2noc(C(F)(F)F)n2)cc1F [Compound 5b.5, N-[2-[3-chloro-5-(trifluoromethyl)-2-pyridyl]ethyl]-2-fluoro-4-[5-(trifluoromethyl)-1,2,4-oxadiazol-3-yl]benzamide] | ≥ 80 | ≥ 80 |  |  | 
113.3 to 114.8 | COc1ccccc1CNC(=O)c1ccc(-c2noc(C(F)(F)F)n2)cc1F [Compound 4b.5, 2-fluoro-N-[(2-methoxyphenyl)methyl]-4-[5-(trifluoromethyl)-1,2,4-oxadiazol-3-yl]benzamide] | ≥ 80 | ≥ 80 | ≥ 80 | ≥ 80 | 
135 to 141 | Cc1cccc(CNC(=O)c2ccc(-c3noc(C(F)(F)F)n3)cc2)c1 [Compound 4a.2, N-(m-tolylmethyl)-4-[5-(trifluoromethyl)-1,2,4-oxadiazol-3-yl]benzamide] | ≥ 80 | ≥ 80 | ≥ 80 | ≥ 80 | 
126.6 to 128.3 | O=C(NCc1ncc(C(F)(F)F)cc1Cl)c1ccc(-c2noc(C(F)(F)F)n2)cc1F [Compound 5b.4, N-[[3-chloro-5-(trifluoromethyl)-2-pyridyl]methyl]-2-fluoro-4-[5-(trifluoromethyl)-1,2,4-oxadiazol-3-yl]benzamide] | ≥ 80 | ≥ 80 |  |  | 
108.5 to 110.4 | CC(C)CC(C)NC(=O)c1ccc(-c2noc(C(F)(F)F)n2)cc1F (stereo not shown) [Compound 3b.7, N-(1,3-dimethylbutyl)-2-fluoro-4-[5-(trifluoromethyl)-1,2,4-oxadiazol-3-yl]benzamide] | ≥ 80 | ≥ 80 | ≥ 80 | ≥ 80 | 
130 to 131.9 | O=C(NCCc1ccccc1)c1ccc(-c2noc(C(F)(F)F)n2)cc1F [Compound 4b.8, 2-fluoro-N-(2-phenylethyl)-4-[5-(trifluoromethyl)-1,2,4-oxadiazol-3-yl]benzamide] | ≥ 80 | ≥ 80 | ≥ 80 | ≥ 80 | 
129.4 to 130.9 | O=C(NCc1cccc(F)c1)c1ccc(-c2noc(C(F)(F)F)n2)cc1F [Compound 4b.4, 2-fluoro-N-[(3-fluorophenyl)methyl]-4-[5-(trifluoromethyl)-1,2,4-oxadiazol-3-yl]benzamide] | ≥ 80 | ≥ 80 | ≥ 80 |  | 
154 to 159 | COc1ccc(CNC(=O)c2ccc(-c3noc(C(F)(F)F)n3)cc2)cc1 [Compound 4a.3, N-[(4-methoxyphenyl)methyl]-4-[5-(trifluoromethyl)-1,2,4-oxadiazol-3-yl]benzamide] | ≥ 80 | ≥ 80 | ≥ 80 | ≥ 80 | 
128 to 130 | CC(COC(F)F)NC(=O)c1ccc(-c2noc(C(F)(F)F)n2)cc1 (stereo not shown) [Compound 3a.43, N-[2-(difluoromethoxy)-1-methyl-ethyl]-4-[5-(trifluoromethyl)-1,2,4-oxadiazol-3-yl]benzamide] | ≥ 80 |  | ≥ 80 | ≥ 80 | ≥ 80
 | O=C(NCc1ccco1)c1ccc(-c2noc(C(F)(F)F)n2)cc1Cl [Compound 5b.17, 2-chloro-N-(2-furylmethyl)-4-[5-(trifluoromethyl)-1,2,4-oxadiazol-3-yl]benzamide] | ≥ 80 | ≥ 80 | ≥ 80 | ≥ 80 | ≥ 80
 | O=C(NC1CCCC1(F)F)c1ccc(-c2noc(C(F)(F)F)n2)cc1 (stereo not shown) [Compound 2a.9, N-(2,2-difluorocyclopentyl)-4-[5-(trifluoromethyl)-1,2,4-oxadiazol-3-yl]benzamide] | ≥ 80 | ≥ 80 | ≥ 80 | ≥ 80 | ≥ 80
 | O=C(NCC1COCCO1)c1ccc(-c2noc(C(F)(F)F)n2)cc1 (stereo not shown) [Compound 1a.2, N-(1,4-dioxan-2-ylmethyl)-4-[5-(trifluoromethyl)-1,2,4-oxadiazol-3-yl]benzamide] | ≥ 80 | ≥ 80 | ≥ 80 | ≥ 80 | ≥ 80
122 to 125.6 | O=C(NCC1CCCC1)c1ccc(-c2noc(C(F)(F)F)n2)cc1F [Compound 2b.8, N (cyclopentylmethyl)-2-fluoro-4-[5-(trifluoromethyl)-1,2,4-oxadiazol-3-yl]benzamide] | ≥ 80 | ≥ 80 |  | ≥ 80 | 
121.1 to 123.7 | CC(NC(=O)c1ccc(-c2noc(C(F)(F)F)n2)cc1F)c1ccccc1 (stereo not shown) [Compound 4b.3, 2-fluoro-N-(1-phenylethyl)-4-[5-(trifluoromethyl)-1,2,4-oxadiazol-3-yl]benzamide] | ≥ 80 | ≥ 80 | ≥ 80 |  | 
 | Cc1ccc(CNC(=O)c2ccc(-c3noc(C(F)(F)F)n3)cc2Cl)o1 [Compound 5b.16, 2-chloro-N-[(5-methyl-2-furyl)methyl]-4-[5-(trifluoromethyl)-1,2,4-oxadiazol-3-yl]benzamide] | ≥ 80 | ≥ 80 | ≥ 80 | ≥ 80 | ≥ 80
 | COc1ccc(CNC(=O)c2ccc(-c3noc(C(F)(F)F)n3)cc2)c(OC)c1 [Compound 4a.13, N-[(2,4-dimethoxyphenyl)methyl]-4-[5-(trifluoromethyl)-1,2,4-oxadiazol-3-yl]benzamide] | ≥ 80 | ≥ 80 | ≥ 80 | ≥ 80 | ≥ 80
117 to 120 | O=C(NCCOC(F)F)c1ccc(-c2noc(C(F)(F)F)n2)cc1 [Compound 3a.45, N-[2-(difluoromethoxy)ethyl]-4-[5-(trifluoromethyl)-1,2,4-oxadiazol-3-yl]benzamide] | ≥ 80 |  | ≥ 80 | ≥ 80 | ≥ 80
 | CN(CC(=O)NC(C)(C)C)C(=O)c1ccc(-c2noc(C(F)(F)F)n2)cc1 [Compound 3a.3, N-[2-(tert-butylamino)-2-oxo-ethyl]-N-methyl-4-[5-(trifluoromethyl)-1,2,4-oxadiazol-3-yl]benzamide] | ≥ 80 | ≥ 80 | ≥ 80 | ≥ 80 | ≥ 80
 | CN(Cc1ccccc1F)C(=O)c1ccc(-c2noc(C(F)(F)F)n2)cc1F [Compound 4b.9, 2-fluoro-N-[(2-fluorophenyl)methyl]-N-methyl-4-[5-(trifluoromethyl)-1,2,4-oxadiazol-3-yl]benzamide] | ≥ 80 | ≥ 80 | ≥ 80 | ≥ 80 | ≥ 80
